Values joined by “and” are separate entries in the source; they are usually repeats but may differ in a detail not shown here. Equal values may be shown once.
Assays:
Experiment in all cases: Kinase inhibition screen, cell-free 33P ATP assay at 10 μM
Format in all cases: biochemical
[1] = system: 140 purified human kinases; settings: PHK
In short: (§1)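 Radiometric ^33P ATP cell-free format with purified enzymes; both complexes run at 10 μM in duplicate, results plotted on a kinome map via HGNC symbols.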

[2] = target: 140 purified human kinases (Homo sapiens, UniProt Q02750)
Chain of 140 purified human kinases (Homo sapiens, UniProt Q02750) (Q02750 whole entry): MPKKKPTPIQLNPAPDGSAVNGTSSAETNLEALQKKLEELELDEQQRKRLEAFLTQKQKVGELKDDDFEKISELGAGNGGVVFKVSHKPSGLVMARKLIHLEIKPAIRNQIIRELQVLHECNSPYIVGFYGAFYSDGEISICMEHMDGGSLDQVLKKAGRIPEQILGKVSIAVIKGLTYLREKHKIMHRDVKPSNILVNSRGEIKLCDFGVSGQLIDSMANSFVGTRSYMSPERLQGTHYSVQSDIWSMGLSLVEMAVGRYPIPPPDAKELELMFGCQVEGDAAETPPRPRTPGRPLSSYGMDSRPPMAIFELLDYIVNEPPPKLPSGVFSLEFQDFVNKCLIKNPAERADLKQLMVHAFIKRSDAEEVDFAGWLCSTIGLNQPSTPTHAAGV
In short: as §1

[3] = target: 140 purified human kinases (Homo sapiens, UniProt P11362)
Chain of 140 purified human kinases (Homo sapiens, UniProt P11362) (P11362 22-822): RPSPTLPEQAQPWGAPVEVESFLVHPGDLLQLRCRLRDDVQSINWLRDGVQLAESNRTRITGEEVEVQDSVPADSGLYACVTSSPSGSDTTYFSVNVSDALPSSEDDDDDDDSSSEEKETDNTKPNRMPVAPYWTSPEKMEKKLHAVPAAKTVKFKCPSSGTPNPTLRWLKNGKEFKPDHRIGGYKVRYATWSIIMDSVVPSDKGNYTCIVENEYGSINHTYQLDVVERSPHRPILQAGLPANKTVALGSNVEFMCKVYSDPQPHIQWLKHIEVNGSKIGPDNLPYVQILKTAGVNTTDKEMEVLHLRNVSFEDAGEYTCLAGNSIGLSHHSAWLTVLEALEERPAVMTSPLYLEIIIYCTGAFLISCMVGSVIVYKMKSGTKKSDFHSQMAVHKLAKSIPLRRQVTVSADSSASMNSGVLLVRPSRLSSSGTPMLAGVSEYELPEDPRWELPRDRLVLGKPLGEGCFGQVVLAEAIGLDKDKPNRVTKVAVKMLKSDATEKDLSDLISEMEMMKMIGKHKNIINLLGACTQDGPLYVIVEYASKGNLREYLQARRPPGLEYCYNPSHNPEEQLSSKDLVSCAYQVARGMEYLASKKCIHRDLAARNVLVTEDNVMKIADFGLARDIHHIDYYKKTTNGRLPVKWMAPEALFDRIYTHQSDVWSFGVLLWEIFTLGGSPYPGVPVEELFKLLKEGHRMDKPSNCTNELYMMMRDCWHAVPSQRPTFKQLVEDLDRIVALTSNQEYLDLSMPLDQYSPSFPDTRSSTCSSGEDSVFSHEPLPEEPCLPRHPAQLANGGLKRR
In short: as §1

[4] = target: 140 purified human kinases (Homo sapiens, UniProt Q14680); settings: MELK
Chain of 140 purified human kinases (Homo sapiens, UniProt Q14680) (Q14680 whole entry): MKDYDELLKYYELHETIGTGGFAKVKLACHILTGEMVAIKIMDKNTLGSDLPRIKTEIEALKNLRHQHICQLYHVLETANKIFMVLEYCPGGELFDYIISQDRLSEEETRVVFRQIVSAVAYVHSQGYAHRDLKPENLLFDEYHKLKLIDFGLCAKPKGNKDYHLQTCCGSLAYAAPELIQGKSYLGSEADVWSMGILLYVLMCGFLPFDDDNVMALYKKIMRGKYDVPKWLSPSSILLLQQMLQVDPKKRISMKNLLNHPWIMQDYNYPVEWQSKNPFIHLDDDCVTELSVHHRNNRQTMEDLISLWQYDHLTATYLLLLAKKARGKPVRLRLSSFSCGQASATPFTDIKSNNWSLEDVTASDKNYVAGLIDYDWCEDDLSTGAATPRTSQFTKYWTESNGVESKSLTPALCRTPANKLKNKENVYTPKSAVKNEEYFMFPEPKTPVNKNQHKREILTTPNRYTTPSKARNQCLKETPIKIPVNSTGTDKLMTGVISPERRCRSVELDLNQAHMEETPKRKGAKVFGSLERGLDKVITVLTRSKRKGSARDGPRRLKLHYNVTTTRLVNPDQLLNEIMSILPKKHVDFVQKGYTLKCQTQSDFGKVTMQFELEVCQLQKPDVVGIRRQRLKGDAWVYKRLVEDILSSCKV
In short: as §1

[5] = target: T1, 140 purified human kinases (Homo sapiens, UniProt P52564)
T1 sequence (P52564 1-334): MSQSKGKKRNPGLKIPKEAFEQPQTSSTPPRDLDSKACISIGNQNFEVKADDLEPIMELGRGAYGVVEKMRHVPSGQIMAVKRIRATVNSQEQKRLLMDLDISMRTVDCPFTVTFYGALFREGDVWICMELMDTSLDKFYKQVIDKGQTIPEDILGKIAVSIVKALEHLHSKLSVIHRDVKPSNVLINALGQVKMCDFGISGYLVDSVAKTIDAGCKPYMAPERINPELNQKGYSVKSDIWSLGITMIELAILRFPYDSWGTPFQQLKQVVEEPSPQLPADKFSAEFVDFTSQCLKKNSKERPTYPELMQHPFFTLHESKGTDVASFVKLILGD
In short: as §1

[6] = target: 140 purified human kinases (Homo sapiens, UniProt P68400)
Chain of 140 purified human kinases (Homo sapiens, UniProt P68400) (P68400 whole entry): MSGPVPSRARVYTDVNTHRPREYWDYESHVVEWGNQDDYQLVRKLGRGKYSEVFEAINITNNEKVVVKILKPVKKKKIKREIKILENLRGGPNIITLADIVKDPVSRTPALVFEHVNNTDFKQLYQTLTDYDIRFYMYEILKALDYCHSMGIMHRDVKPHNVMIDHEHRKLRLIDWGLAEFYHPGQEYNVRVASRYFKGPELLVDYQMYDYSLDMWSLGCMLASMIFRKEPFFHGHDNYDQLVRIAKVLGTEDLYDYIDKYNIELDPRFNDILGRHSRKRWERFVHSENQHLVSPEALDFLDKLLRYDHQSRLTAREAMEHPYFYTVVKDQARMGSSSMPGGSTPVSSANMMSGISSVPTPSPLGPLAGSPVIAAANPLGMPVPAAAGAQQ
In short: as §1

[7] = target: T2, 140 purified human kinases (Homo sapiens, UniProt O14920); settings: IKKb; for % Activity inhibition Mean / % Activity inhibition Run 1 / % Activity inhibition Run 2 / % Activity remaining Run 1 / % Activity remaining Run 2: 10 µM
T2 sequence (O14920 1-756): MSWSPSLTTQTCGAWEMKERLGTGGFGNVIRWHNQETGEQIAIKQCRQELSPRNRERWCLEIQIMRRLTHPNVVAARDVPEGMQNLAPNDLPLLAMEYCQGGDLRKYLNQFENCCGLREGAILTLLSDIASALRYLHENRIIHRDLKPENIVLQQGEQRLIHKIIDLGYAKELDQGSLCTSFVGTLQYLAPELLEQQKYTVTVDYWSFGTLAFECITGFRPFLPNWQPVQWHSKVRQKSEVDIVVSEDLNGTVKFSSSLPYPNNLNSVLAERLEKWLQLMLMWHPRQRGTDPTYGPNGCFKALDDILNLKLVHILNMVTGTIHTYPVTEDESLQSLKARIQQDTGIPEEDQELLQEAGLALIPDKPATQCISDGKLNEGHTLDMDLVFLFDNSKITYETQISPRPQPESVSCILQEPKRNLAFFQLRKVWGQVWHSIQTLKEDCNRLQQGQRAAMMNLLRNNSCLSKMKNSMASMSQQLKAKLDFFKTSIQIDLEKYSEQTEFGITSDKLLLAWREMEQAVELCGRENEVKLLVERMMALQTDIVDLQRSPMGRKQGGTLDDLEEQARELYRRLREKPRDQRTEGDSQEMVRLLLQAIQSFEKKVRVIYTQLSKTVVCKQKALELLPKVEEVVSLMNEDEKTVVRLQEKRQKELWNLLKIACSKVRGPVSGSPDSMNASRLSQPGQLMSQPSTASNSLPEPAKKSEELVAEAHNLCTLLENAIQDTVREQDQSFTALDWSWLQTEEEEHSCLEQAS
In short: as §1

[8] = target: T3, 140 purified human kinases (Homo sapiens, UniProt Q15831)
T3 sequence (Q15831 1-433): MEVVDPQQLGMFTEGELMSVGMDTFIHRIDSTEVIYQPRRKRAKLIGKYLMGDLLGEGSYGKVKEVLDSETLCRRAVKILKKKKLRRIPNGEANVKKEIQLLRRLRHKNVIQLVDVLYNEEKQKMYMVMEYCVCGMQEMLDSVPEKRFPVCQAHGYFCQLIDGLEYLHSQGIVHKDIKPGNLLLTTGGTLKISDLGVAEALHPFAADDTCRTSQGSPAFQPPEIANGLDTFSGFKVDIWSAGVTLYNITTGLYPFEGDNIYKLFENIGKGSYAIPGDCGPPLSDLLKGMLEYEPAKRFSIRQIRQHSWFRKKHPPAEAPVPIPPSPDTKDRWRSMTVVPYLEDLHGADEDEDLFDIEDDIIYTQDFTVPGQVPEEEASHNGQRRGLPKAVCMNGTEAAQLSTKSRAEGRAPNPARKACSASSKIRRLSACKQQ
In short: as §1

[9] = target: 140 purified human kinases (Homo sapiens, UniProt P80192)
Chain of 140 purified human kinases (Homo sapiens, UniProt P80192) (P80192 whole entry): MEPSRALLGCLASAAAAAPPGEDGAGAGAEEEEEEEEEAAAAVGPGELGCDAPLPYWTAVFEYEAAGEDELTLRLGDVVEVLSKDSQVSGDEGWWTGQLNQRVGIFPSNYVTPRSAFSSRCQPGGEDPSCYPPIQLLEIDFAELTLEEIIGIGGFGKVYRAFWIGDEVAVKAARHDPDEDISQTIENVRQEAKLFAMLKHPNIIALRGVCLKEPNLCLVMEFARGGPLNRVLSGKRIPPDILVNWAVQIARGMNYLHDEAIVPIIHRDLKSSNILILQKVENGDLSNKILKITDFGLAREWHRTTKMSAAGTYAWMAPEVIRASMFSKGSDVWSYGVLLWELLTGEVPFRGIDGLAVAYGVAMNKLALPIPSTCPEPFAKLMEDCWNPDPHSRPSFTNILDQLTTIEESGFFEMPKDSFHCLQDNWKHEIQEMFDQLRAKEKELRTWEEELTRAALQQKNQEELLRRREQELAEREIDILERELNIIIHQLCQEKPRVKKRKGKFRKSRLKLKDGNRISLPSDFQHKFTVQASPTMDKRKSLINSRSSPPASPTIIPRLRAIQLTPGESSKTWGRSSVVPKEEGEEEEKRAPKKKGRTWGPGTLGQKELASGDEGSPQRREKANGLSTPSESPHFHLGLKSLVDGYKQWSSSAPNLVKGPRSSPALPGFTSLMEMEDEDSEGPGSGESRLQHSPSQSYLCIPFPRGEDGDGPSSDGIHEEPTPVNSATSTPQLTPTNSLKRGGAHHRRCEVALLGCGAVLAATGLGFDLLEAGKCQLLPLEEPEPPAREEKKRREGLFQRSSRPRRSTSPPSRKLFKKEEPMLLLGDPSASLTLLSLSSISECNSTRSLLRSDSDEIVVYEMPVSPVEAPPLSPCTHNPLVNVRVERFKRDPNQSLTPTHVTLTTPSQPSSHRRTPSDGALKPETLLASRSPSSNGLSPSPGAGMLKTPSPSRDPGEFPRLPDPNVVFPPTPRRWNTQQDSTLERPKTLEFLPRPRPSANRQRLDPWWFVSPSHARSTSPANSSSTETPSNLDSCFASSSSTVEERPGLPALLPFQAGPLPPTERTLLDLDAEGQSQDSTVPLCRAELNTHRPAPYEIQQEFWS
In short: as §1

[10] = target: 140 purified human kinases (Homo sapiens, UniProt Q9H2X6)
Chain of 140 purified human kinases (Homo sapiens, UniProt Q9H2X6) (Q9H2X6 whole entry): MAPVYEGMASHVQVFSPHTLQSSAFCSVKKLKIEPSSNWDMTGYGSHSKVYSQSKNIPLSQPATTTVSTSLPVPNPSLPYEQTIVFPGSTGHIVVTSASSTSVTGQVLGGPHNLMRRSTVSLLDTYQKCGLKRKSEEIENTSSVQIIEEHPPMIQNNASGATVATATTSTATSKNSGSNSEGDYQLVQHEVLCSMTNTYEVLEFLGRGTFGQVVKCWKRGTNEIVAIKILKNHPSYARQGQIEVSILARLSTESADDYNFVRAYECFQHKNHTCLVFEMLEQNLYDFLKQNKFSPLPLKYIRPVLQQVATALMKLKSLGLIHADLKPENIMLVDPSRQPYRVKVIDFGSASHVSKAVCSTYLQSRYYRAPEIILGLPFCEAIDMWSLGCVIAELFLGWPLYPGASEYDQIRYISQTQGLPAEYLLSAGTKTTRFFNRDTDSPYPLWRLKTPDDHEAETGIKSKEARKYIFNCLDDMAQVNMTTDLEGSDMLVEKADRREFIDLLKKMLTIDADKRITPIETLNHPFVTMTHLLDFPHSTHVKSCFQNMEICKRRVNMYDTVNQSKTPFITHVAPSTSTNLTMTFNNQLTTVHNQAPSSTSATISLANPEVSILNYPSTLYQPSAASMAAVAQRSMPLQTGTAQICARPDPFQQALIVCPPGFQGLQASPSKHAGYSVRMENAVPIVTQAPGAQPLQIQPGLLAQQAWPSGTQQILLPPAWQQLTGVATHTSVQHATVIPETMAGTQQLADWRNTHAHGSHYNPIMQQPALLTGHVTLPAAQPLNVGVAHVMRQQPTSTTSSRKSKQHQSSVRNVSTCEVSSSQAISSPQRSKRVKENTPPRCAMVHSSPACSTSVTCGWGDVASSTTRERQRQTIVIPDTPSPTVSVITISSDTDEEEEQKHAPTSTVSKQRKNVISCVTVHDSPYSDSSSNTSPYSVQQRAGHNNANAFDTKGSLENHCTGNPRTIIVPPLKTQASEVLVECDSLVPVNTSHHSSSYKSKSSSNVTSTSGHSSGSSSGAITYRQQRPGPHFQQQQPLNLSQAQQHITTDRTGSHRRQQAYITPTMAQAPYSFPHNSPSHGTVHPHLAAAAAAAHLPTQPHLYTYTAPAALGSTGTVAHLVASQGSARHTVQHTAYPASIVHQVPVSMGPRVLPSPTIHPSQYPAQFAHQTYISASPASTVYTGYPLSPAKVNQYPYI
In short: as §1

## CC(=O)[O-].CC(=O)[O-].CC(=O)[O-].CC(=O)[O-].CC(=O)[O-].CC(=O)[O-].[Zn+2].[Zn+2].[Zn+2].c1ccc(-c2csc(NCCN(CCNc3nc(-c4ccccn4)cs3)CCNc3nc(-c4ccccn4)cs3)n2)nc1.c1ccc(-c2csc(NCCN(CCNc3nc(-c4ccccn4)cs3)CCNc3nc(-c4ccccn4)cs3)n2)nc1 [[L2Zn3]6+]
[1]
  % Inhibition, Run 1 / Run 2: 68% and 61%
[2]; MKK1
  % Activation, Mean value: 3%
  % Inhibition, Mean: -3%
  % Inhibition, Run 1 / Run 2: -3%
  mean % activity: 103%
[2]; MKK1, duplicate runs
  % activity: 103%
[3]; FGF-R1
  % Inhibition, Mean: 82%
  % Inhibition, Run 1 / Run 2: 88% and 76%
  mean % activity: 18%
[3]; FGF-R1, 10 µM
  % Activity inhibition Mean: 81.5%
  % Activity inhibition Run 1: 87%
  % Activity inhibition Run 2: 76%
  % Activity remaining Run 1: 13%
  % Activity remaining Run 2: 24%
[3]; FGF-R1, duplicate runs
  % activity: 13% and 24%
[4]
  % Inhibition, Mean: 27%
  % Inhibition, Run 1 / Run 2: 35% and 19%
  mean % activity: 73%
[4]; duplicate runs
  % activity: 65% and 81%
[5]; MKK6
  % Inhibition, Mean: 48%
  % Inhibition, Run 1 / Run 2: 59% and 37%
  mean % activity: 52%
[5]; MKK6, duplicate runs
  % activity: 41% and 63%
[6]; CK2
  % Inhibition, Mean: 13%
  % Inhibition, Run 1 / Run 2: 15% and 12%
  mean % activity: 87%
[6]; CK2, duplicate runs
  % activity: 85% and 88%
[7]
  % Inhibition, Mean: 92%
  % Inhibition, Run 1 / Run 2: 94% and 90%
  mean % activity: 8%
  % Activity inhibition Mean: 92.0%
  % Activity inhibition Run 1: 94%
  % Activity inhibition Run 2: 90%
  % Activity remaining Run 1: 6%
  % Activity remaining Run 2: 10%
[7]; duplicate runs
  % activity: 6% and 10%
[8]; LKB1
  % Activation, Mean value: 9%
  % Inhibition, Mean: -9%
  mean % activity: 109%
[8]; LKB1, duplicate runs
  % activity: 101% and 116%
[9]; MLK1
  % Inhibition, Mean: 11%
  mean % activity: 89%
[9]; MLK1, duplicate runs
  % activity: 83% and 96%
[10]; HIPK2
  % Inhibition, Mean: 12%
  mean % activity: 88%
[10]; HIPK2, duplicate runs
  % activity: 76% and 100%

## [Cu+2].[Cu+2].[Cu+2].c1ccc(-c2csc(NCCN(CCNc3nc(-c4ccccn4)cs3)CCNc3nc(-c4ccccn4)cs3)n2)nc1.c1ccc(-c2csc(NCCN(CCNc3nc(-c4ccccn4)cs3)CCNc3nc(-c4ccccn4)cs3)n2)nc1 [[L2Cu3]6+]
[1]; Run 1
  % activity: 40.1%
[1]; Run 2
  % activity: 50.7%
[2]; MKK1
  % Inhibition Run 1: 34%
  % Inhibition Run 2: 8.9%
  % Inhibition, Mean: 21%
  mean % activity: 79%
[2]; MKK1, Run 1
  % activity: 66%
[2]; MKK1, Run 2
  % activity: 91.1%
[3]; FGF-R1
  % Inhibition Run 1: 63.7%
  % Inhibition Run 2: 61.4%
  % Inhibition, Mean: 63%
  mean % activity: 37%
[3]; FGF-R1, Run 1
  % activity: 36.3%
[3]; FGF-R1, Run 2
  % activity: 38.6%
[4]
  % Inhibition Run 1: 38.7%
  % Inhibition Run 2: 33.3%
  % Inhibition, Mean: 36%
  mean % activity: 64%
[4]; Run 1
  % activity: 61.3%
[4]; Run 2
  % activity: 66.7%
[5]; MKK6
  % Inhibition Run 1: 75.4%
  % Inhibition Run 2: 83.7%
  % Inhibition, Mean: 80%
  mean % activity: 20%
[5]; MKK6, Run 1
  % activity: 24.6%
[5]; MKK6, Run 2
  % activity: 16.3%
[6]; CK2
  % Inhibition Run 1: -0.5%
  % Inhibition Run 2: 5.6%
  % Inhibition, Mean: 2.55%
  mean % activity: 97%
[6]; CK2, Run 1
  % activity: 100.5%
[6]; CK2, Run 2
  % activity: 94.4%
[7]
  % Inhibition Run 1: 92.1%
  % Inhibition Run 2: 92.5%
  % Inhibition, Mean: 92%
  mean % activity: 8%
  % Activity inhibition Mean: 92.3%
  % Activity inhibition Run 1: 92.1%
  % Activity inhibition Run 2: 92.5%
  % Activity remaining Run 1: 7.90%
  % Activity remaining Run 2: 7.50%
[7]; Run 1
  % activity: 7.9%
[7]; Run 2
  % activity: 7.5%
[8]; LKB1
  % Inhibition Run 1: 22.9%
  % Inhibition Run 2: 29.1%
  % Inhibition, Mean: 26%
  mean % activity: 74%
[8]; LKB1, Run 1
  % activity: 77.1%
[8]; LKB1, Run 2
  % activity: 70.9%
[9]; MLK1
  % Inhibition Run 1: 83.6%
  % Inhibition Run 2: 85.4%
  % Inhibition, Mean: 85%
  mean % activity: 16%
[9]; MLK1, Run 1
  % activity: 16.4%
[9]; MLK1, Run 2
  % activity: 14.6%
[10]; HIPK2
  % Inhibition Run 1: 50.5%
  % Inhibition Run 2: 45.5%
  % Inhibition, Mean: 48%
  mean % activity: 52%
[10]; HIPK2, Run 1
  % activity: 49.5%
[10]; HIPK2, Run 2
  % activity: 54.5%

From paper PMC8222254, “Self-assembly of an anion receptor with metal-dependent kinase inhibition and potent in vitro anti-cancer properties” (Nature Communications, 2021)
